Experimental data from patent EP2692724B1, “CHIRAL 3-HYDROXYPYRID-4-ONE DERIVATIVE, AND SYNTHESIS AND USE THEREOF” (Zhejiang University, priority 2011, dated 2012).
Structures can show the parent of a compound that is named as a salt.

What was measured:
^59Fe-Ferritin = experiment: Biological effect of iron chelators over 59Fe-Ferritin/Rat (iron excretion ability, oral); type: in vivo; settings: for Iron Excretion (%): rat model, taken orally (intragastric) 1 h after tail vein injection of 59Fe-Ferritin, test ends after 24 h, n=5; for iron excretion ability compared with CP20: in vivo rat test, administered in equimolar amounts
Procedure: According to methods described by Pippard's research group [Blood 58: 685-692], use ^59Fe to label ferritin in rat liver. Isolate ^59Fe-labelled ferritin by the method described by Bjorklid and Helgeland. In the preparation process, the rats were injected intraperitoneally with iron dextran, and intravenous administration of red blood cells, in order to keep the plasma transferrin saturated. This method ensures that most of ^59Fe (III) is absorbed by the liver, so ^59Fe-ferritin with high specific radioactivity can be obtained.
Performance of one shot intraperitoneal injection of 15mg iron dextran to 350∼400 g rats. After one week, jugular vein cannula is performed and then a 24 h's rest. Then the second day, each rat is given packed red cells (2 mL/100g). After 24 h, each rat is injected via the jugular vein cannula with 200 µCi ^59FeCl solution (Amersham Life Science). ^59FeCl3 (1mCi) is diluted 0.5 mL citrate (50mM, pH 2.5). Each experiment employs 5 rats, total radiation is 1mCi. 24 h after isotopically labeled injection, the livers were removed from rats.
Homogenization of liver is processed in 4 vol. (w/v) 0.25M acetate buffer. The homogenate was heated to 75°C with stirring for 10min. After cooling to 4°C, remove solid protein by centrifugation at 2500 g for 15 min. Treat the supernatant that contains tissue iron protein with half saturated (NH4)2SO4, while cooling in ice water for 30 min. The precipitate obtained by centrifugation at 3500 g at 4°C for 15 min, is dissolved in 0.25M pH=4.8 acetate buffer. Undissolved precipitate is removed through a Pd-10 column (Sephadex®, G-25M, Pharmacia Biotech). The resulting solution is centrifuged at 100,000 g at 4°C for 2 h. The final precipitate is dissolved in 0.05M pH=7.4 phosphate buffer, and stored at 4°C. The purity of ^59Fe-ferritin and normal Ferritin (Sigma Chemical Co.) are compared by electrophoresis. Iron concentration of ferritin is tested by colorimetry [Biochem Mol. Biol Int 35(3): […]].
Starved rat was injected ^59Fe-Ferritin via tail vein, in order to label rat liver cells with ^59Fe. After 1 h, each rat is given an iron chelator via intragastric injection. Blank group is administered with water by lavage. Each rat is placed in a metabolic cage, collect urine and feces. All rats are given free access to food after oral administration 1h later, and are free to drink water during the whole experiment. Test ends after 24 h of the tail vein injection of ^59Fe-Ferritin. All rats are killed by the cervical dislocation, then the liver and gastrointestinal system (including its content and feces) are collected for ^59Fe quantification. Calculation for iron excretion ability of iron chelators with following formula: (1) Iron Excretion(%)=^59Fe Activity(intestinal track & feces)/(^59Fe Activity(intestinal tracks & feces)+ ^59Fe Activity(liver))×100% Table 1 Iron excretion ability of taking chiral 3-hydroxypyridine-4-one orally on rat model (n=5).

mice = experiment: Acute toxicity test in mice (maximum oral dosage); type: in vivo; settings: suspension of maximum solubility in 0.5% CMC-Na, dose with no fatality
Procedure: Prepare suspension of maximum solubility of each compound with 0.5% CMC-Na. Maximum oral dosage to mice is 0.4 mL/10g. Blank group took the same volume 0.5% CMC-Na solution orally (blank group and test group has 4 mice each, 2 female and 2 male). […] Monitor reaction of animal right after drug administration, including appearance, activities, mental states, appetites, urea/feces and its color, fur, nose, eye, mouth, if there are any abnormal secretions and death situation, give timely autopsy to dead animals. If any obvious pathology of organs is found, perform histopathological inspection. Every inspection should be performed every 30∼60 min in the 1st day, then check once a day, record animal toxicity and death distribution. Table 2. Maximum dosage of a few 3-hydroxypyridin-4-one derivatives to mice.

[1] = reduced by glycosylation of the hydroxyl group at 3' position; cited from earlier work

Compound | Iron Excretion (%) (^59Fe-Ferritin) | other results
CCc1c(O)c(=O)ccn1[C@H](CO)Cc1ccccc1 [CN426, (S)-3-Hydroxy-1-(1-hydroxy-3-phenylpropyl-2-)-2-ethyl pyridine-4(1H)-one hydrochloride] | 13.1 | –
3-Hydroxy-1-((2S)-1-hydroxy-3-methyl pentyl-2-)-2-methyl pyridine-4(1H)-one hydrochloride [CN336] | 10.8 | –
Cc1c(O)c(=O)ccn1[C@@H](CO)C(C)C [CN318, (R)-3-Hydroxy-1-(1-hydroxy-3-methylbutyl-2-)-2-methyl pyridine-4(1H)-one hydrochloride] | 8.0 | –
(R)-3-Hydroxy-1-(1-hydroxy-3-propyl-2-)-2-methyl pyridine-4(1H)-one hydrochloride [CN308] | 6.5 | –
CCc1c(O)c(=O)ccn1[C@@H](C)CO [CN206, (S)-3-Hydroxy-1-(1-hydroxypropyl-2-)-2-ethylpyridine-4(1H)-one] | 16 | Maximum dosage: Dosage(g/kg) (mice): 3.75 g/kg; Maximum dosage: Mole dosage(mmol/kg) (mice): 19.0 mmol/kg; iron excretion ability compared with CP20 (^59Fe-Ferritin): several times better than CP20
Cc1c(O)c(=O)ccn1C [CP20, reference compound] | 11.4 | Maximum dosage: Dosage(g/kg) (mice): 1.50 g/kg; Maximum dosage: Mole dosage(mmol/kg) (mice): 10.7 mmol/kg; half-life [1]: 2∼3 h
(S)-3-hydroxy-1-(1-hydroxy propyl-2-)-2-methyl pyridine-4(1H)-one hydrochloride [CN306] | 11.9 | –
CCc1c(O)c(=O)ccn1[C@@H](CO)Cc1ccccc1 [CN228, (R)-3-Hydroxy-1-(1-hydroxy-3-phenylpropyl-2-)-2-ethyl pyridine-4(1H)-one] | 22.3 | iron excretion ability compared with CP20 (^59Fe-Ferritin): several times better than CP20
Cc1c(O)c(=O)ccn1[C@H](CO)Cc1ccccc1 [CN326, (S)-3-Hydroxy-1-(1-hydroxy-3-phenylpropyl-2-)-2-methyl pyridine-4(1H)-one hydrochloride] | 12.8 | –
Cc1c(O)c(=O)ccn1[C@@H](CO)Cc1ccccc1 [CN128, (R)-3-Hydroxy-1-(1-hydroxy-3-benzylpropyl-2-)2-methyl pyridine-4(1H)-one] | 24.8 | iron excretion ability compared with CP20 (^59Fe-Ferritin): several times better than CP20
3-Hydroxy-1-((2S)-1-hydroxy-3-methyl pentyl-2-)-2-ethyl pyridine-4(1H)-one hydrochloride [CN436] | 5.8 | –
CCc1c(O)c(=O)ccn1[C@@H](CO)C(C)C [CN418, (R)-3-Hydroxy-1-(1-hydroxy-3-methylbutyl-2-)-2-ethyl pyridine-4(1H)-one hydrochloride] | 10.6 | –
Cc1c(O)c(=O)ccn1[C@H](CO)C(C)C [CN116, (S)-3-Hydroxy-1-(1-hydroxy-3-methylbutyl-2-)-2-methyl pyridine-4(1H)-one] | 18.7 | iron excretion ability compared with CP20 (^59Fe-Ferritin): several times better than CP20
CCc1c(O)c(=O)ccn1[C@H](CO)C(C)C [CN416, (S)-3-Hydroxy-1-(1-hydroxy-3-methylbutyl-2-)-2-ethyl pyridine-4(1H)-one hydrochloride] | 7.9 | –
CCc1c(O)c(=O)ccn1[C@H](C)CO [CN408, (R)-3-Hydroxy-1-(1-hydroxy-3-propyl-2-)-2-ethyl pyridine-4(1H)-one hydrochloride] | 10.6 | –
